In data set [1] the target is human PI3K isoform gamma (p110 gamma) (Homo sapiens, UniProt P48736). In words: p110 isoform selectivity scintillation proximity assay (SPA), gamma isoform. Type of data set: biochemical. Conditions: fold potency over gamma relative to alpha, calculated from IC50 values (SPA). As for the experimental part: (§1) Binding of Formula Ia and Ib compounds from Tables 1a and 1b to purified preparations of p110 isoforms alpha, beta, delta, and gamma was measured by a Scintillation Proximity Assay (SPA) to determine binding activity (IC50 μMol) and selectivity of binding of beta, delta, and gamma isoforms relative to alpha (Example 365). These values are expressed in Table 2.
human PI3K isoform gamma (p110 gamma), sequence (P48736 whole entry, canonical isoform): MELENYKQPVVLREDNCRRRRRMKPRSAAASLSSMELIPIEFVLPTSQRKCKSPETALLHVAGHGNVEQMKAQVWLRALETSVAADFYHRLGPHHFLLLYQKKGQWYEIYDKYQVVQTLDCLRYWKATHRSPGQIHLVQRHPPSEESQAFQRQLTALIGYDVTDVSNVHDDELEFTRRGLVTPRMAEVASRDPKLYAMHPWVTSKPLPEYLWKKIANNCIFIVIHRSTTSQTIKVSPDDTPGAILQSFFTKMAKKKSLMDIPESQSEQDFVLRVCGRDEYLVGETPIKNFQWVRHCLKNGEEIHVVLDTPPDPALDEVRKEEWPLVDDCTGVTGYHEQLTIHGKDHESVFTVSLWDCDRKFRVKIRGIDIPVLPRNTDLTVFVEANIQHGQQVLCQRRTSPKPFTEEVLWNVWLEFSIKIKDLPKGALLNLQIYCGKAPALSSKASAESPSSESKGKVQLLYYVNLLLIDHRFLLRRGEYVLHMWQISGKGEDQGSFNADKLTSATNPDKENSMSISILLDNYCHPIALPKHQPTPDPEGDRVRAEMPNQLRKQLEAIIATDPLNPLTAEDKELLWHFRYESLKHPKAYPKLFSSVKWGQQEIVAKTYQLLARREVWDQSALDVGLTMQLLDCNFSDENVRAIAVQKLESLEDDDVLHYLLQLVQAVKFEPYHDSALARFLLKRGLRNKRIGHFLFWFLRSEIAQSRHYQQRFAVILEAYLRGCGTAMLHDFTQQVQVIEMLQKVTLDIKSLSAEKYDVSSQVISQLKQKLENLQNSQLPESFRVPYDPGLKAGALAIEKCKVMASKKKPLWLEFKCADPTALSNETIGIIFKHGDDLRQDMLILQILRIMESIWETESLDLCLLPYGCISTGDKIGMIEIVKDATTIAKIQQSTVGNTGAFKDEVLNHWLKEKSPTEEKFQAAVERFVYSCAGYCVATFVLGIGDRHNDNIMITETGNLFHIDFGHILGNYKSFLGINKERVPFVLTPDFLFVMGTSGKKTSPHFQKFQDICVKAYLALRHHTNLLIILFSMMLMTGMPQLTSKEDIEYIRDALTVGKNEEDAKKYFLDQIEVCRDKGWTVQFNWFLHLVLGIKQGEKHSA
(§2) The ability of Formula Ia and Ib compounds from Tables 1a and 1b to inhibit the lipid kinase activity of purified preparations of human PI3K isoforms alpha, beta, delta, and gamma was determined by a radiometric scintillation proximity assay (SPA, GE Healthcare, Amersham Biosciences). Concentration dependent inhibition at 50% (IC50 μMol) was determined for all four isoforms […] and fold potency over beta, delta, and gamma relative to alpha was calculated for a selection of compounds in Table 2. Each compound has a p110 alpha IC50<1 μMol.

Data set [2] has as its target human PI3K isoform beta (p110 beta) (Homo sapiens, UniProt P42338). Put plainly: p110 isoform selectivity scintillation proximity assay (SPA), beta isoform. Type of data set: biochemical. Conditions: fold potency over beta relative to alpha, calculated from IC50 values (SPA). On the procedure: as §1, §2
The target of data set [3] is human PI3K isoform delta (p110 delta) (Homo sapiens, UniProt O00329). Put plainly: p110 isoform selectivity scintillation proximity assay (SPA), delta isoform. In kind it is biochemical. Conditions: fold potency over delta relative to alpha, calculated from IC50 values (SPA). As for the experimental part:
as §1, §2

For data set [4] the following is noted: cited from earlier work.
The conditions of data set [5]: cited from earlier work. The source holds these as a separate data set.

human PI3K isoform delta (p110 delta), sequence (O00329 whole entry, canonical isoform): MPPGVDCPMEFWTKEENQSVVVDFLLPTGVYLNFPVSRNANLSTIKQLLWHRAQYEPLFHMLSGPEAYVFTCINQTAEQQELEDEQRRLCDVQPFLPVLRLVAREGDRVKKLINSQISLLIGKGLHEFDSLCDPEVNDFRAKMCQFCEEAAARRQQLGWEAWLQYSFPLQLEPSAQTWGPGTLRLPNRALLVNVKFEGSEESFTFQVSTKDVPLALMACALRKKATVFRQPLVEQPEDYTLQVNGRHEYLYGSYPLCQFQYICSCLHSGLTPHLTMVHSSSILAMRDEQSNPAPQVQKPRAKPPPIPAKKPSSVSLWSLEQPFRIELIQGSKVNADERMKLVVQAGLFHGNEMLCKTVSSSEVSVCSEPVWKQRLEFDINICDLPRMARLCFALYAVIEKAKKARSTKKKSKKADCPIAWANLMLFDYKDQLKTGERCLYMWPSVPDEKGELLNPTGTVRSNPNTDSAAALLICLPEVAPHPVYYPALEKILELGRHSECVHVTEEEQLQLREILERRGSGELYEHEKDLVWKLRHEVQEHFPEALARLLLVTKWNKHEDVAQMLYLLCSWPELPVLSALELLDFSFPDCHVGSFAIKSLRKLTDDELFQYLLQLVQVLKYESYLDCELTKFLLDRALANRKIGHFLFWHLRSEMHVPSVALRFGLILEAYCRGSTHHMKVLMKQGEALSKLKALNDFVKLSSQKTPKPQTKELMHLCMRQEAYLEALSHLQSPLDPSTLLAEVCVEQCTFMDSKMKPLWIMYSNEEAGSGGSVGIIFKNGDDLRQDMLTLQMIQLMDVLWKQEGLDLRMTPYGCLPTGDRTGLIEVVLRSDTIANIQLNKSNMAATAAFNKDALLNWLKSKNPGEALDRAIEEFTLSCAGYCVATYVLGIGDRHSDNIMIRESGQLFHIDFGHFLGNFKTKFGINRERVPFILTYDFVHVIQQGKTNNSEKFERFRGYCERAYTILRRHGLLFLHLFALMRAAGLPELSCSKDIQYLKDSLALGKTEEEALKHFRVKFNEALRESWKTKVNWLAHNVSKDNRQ
human PI3K isoform delta (p110 delta), sequence (P27986 whole entry partner, canonical isoform): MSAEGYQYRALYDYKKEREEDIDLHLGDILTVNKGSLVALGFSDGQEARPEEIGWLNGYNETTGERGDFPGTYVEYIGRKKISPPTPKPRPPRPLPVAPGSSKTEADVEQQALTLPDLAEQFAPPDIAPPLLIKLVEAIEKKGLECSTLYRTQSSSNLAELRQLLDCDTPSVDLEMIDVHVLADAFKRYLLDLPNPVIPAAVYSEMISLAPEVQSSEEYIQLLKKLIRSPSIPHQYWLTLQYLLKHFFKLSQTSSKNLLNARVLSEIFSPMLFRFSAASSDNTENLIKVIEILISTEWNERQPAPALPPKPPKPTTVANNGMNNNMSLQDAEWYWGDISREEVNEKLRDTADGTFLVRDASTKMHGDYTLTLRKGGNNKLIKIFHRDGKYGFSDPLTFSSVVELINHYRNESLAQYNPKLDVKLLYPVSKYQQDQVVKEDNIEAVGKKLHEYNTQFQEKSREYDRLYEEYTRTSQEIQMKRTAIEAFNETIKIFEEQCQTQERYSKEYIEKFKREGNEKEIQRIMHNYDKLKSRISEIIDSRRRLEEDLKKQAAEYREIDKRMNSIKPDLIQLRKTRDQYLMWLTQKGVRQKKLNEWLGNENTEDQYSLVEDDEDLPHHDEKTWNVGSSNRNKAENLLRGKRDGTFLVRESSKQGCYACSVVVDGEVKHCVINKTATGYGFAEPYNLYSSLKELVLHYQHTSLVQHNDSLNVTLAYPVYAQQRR
human PI3K isoform beta (p110 beta), sequence (P42338 whole entry, canonical isoform): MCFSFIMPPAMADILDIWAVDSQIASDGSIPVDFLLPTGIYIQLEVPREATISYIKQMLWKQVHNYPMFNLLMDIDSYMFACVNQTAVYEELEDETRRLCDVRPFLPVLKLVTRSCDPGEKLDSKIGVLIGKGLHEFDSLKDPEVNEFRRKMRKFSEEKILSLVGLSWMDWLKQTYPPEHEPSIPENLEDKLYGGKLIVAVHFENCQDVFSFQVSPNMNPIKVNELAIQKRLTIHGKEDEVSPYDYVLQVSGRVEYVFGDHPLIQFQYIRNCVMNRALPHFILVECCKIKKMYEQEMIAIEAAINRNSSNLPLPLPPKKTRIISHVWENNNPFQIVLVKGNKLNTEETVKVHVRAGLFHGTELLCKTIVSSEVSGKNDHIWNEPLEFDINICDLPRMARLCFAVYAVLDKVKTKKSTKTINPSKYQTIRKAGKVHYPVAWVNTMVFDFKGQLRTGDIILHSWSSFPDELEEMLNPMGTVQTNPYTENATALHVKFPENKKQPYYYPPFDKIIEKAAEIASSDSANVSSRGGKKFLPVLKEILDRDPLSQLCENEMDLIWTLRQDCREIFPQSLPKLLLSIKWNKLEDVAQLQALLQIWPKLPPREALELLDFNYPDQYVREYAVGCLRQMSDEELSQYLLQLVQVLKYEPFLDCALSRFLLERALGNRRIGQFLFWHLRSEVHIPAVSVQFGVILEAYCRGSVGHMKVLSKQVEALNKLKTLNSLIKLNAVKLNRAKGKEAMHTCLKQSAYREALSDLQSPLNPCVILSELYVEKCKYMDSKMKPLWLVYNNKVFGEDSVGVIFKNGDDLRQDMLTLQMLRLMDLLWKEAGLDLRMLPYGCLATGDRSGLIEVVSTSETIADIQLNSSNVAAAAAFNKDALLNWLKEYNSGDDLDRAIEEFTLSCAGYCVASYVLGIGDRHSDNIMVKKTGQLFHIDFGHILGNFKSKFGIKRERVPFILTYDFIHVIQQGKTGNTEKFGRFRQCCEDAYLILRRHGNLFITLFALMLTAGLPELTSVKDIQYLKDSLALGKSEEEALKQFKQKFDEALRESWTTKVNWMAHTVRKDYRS
human PI3K isoform beta (p110 beta), sequence (P27986 whole entry partner, canonical isoform): as the sequence (P27986 whole entry partner, canonical isoform) above

Regarding `CN(C)Cc1cc2nc(-c3cccc4[nH]ncc34)nc(N3CCOCC3)c2s1` [Compound 304, (2-(1H-indazol-4-yl)-4-morpholinothieno[3,2-d]pyrimidin-6-yl)-N,N-dimethylmethanamine], the alpha/gamma in data set [1] is listed as >10. In addition, the alpha/beta in data set [2] is given as 10. Also, the alpha/delta in data set [3] is <10.

In the case of `CN(Cc1cc2c(N3CCOCC3)nc(-c3cnc4[nH]ccc4c3)nc2s1)S(C)(=O)=O` [Compound 417, N-methyl, N-methylsulfonyl(4-morpholino-2-(1H-pyrrolo[2,3-b]pyridin-5-yl)thieno[2,3-d]pyrimidin-6-yl)methanamine], the alpha/gamma in data set [1] was >10. The alpha/beta in data set [2] was >10. The alpha/delta in data set [3] is listed as >10.

Take `O=c1cc(N2CCOCC2)oc2c(-c3ccccc3)cccc12` [LY294002, 2-(4-morpholinyl)-8-phenyl-4H-1-benzopyran-4-one]: the aqueous solubility entry in data set [4] is recorded as “lack of aqueous solubility”. In addition, the metabolism in animals result in data set [5] (animals) is “rapidly metabolized in animals”. In data set [5] (in vivo), the pharmacokinetics entry is given as “poor pharmacokinetics”.

Take `c1ccc(-c2cc3nc(-c4cccc5[nH]ncc45)nc(N4CCOCC4)c3o2)cc1` [Compound 233, 2-(1H-indazol-4-yl)-4-morpholino-6-phenylfuro[3,2-d]pyrimidine]: the alpha/gamma in data set [1] is listed as <10. Besides, in data set [2], the alpha/beta was >10. The alpha/delta in data set [3] is given as <10.

Consider `CC(C)(O)c1cc2nc(-c3cccc4[nH]ncc34)nc(N3CCOCC3)c2s1` [Compound 235, 2-(2-(1H-indazol-4-yl)-4-morpholinothieno[3,2-d]pyrimidin-6-yl)propan-2-ol], for which the alpha/gamma in data set [1] is listed as >10. Besides, the alpha/beta in data set [2] is recorded as >10. Further, in data set [3], the alpha/delta is listed as <10.

(Values after US8450315B2, “Phosphoinositide 3-kinase inhibitor compounds and methods of use” (Genentech, Inc., priority 2006, dated 2013).)
